Laboratory results as given in patent US4031077A, “Antibacterial 3-phosphono penams” (priority 1976, dated 1977).
Values joined by “and” are separate entries in the source; they are usually repeats but may differ in a detail not shown here. Identical values can stand only once. Counter-ions that a name gives are not always drawn. Like-named read-outs stand apart in the source and are kept apart here.

Experiments:
Staph. aureus = type: cell-based, Staphlococcus aureus
Strep. equi. = assay: microbe, parasite or virus in culture; type: cell-based, Streptococcus equis; details: 10^5-10^6 cells, 37° C., anaerobic, sodium salt, Test No. 1-2
Strep. zoo. = type: cell-based, Streptococcus zoobacter; details: Strep. zoo. strain 02H001, brain-heart infusion agar, 10^5-10^6 cells, 37° C., anaerobic, sodium salt, Test No. 1-3

Row | SMILES | MIC (minimal inhibitory concentration) (Staph. aureus; Staph. aureus strain 01A006; brain-heart infusion agar, 10^5-10^6 cells, 37° C., anaerobic; sodium salt; Test No. 1-3) [µg/mL] | MIC (Strep. equi.; Streptococcus equi, Strep. equi. strain 02I001, brain-heart infusion agar, read-out: MIC (minimal inhibitory concentration)) [µg/mL] | MIC (minimal inhibitory concentration) (Strep. zoo.) | MIC (minimal inhibitory concentration) (Staph. aureus; Staph. aureus strain 01A005, brain-heart infusion agar, 10^5-10^6 cells, 37° C., anaerobic, sodium salt, Test No. 1-3) [µg/mL] | MIC (minimal inhibitory concentration) (Staph. aureus; Staph. aureus strain 01A006, brain-heart infusion agar, 10^5-10^6 cells, 37° C., anaerobic, sodium salt, Test No. 1-3) [µg/mL] | MIC (minimal inhibitory concentration) (Strep. equi.; Strep. equi. strain 02I001, brain-heart infusion agar) [µg/mL]
1 | COP(=O)(O)C1N2C(=O)C(NC(=O)COc3ccccc3)C2SC1(C)C (stereo not drawn) [6-(2-Phenoxyacetamido)-2,2-dimethyl-3-(0-methylphosphono)penam, sodium salt] | 200 | 200 | – | – | – | –
2 | CC1(C)S[C@@H]2C(NC(=O)COc3ccccc3)C(=O)N2C1P(=O)(O)O.[Na] (stereo partly drawn) [6-(2-Phenoxyacetamido)-2,2-dimethyl-3-phosphonopenam, sodium salt] | – | – | 100 µg/mL and 200 µg/mL | > 200 | > 200 | 100
